The text below walks through data of patent US8178658B2 (Dow AgroSciences, LLC, priority 2008, dated 2012).

Assay [1] concerns beet armyworm (BAW; Spodoptera exigua: Lepidoptera). As to the kind of experiment: 96-well microtiter plate-based high throughput (HTS) diet bioassay on beet armyworm (BAW HTS). In kind it is in vivo. To be noted: for BAW HTS: BAW eggs, 12 μg test compound per well, mortality at 6 d post-treatment, mortality class; for pest or weed control at 12 µg/well, 12 µg/well: Spodoptera exigua, 144 h, read-out: BAW HTS. In a few lines:
(§1)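 Spodoptera exigua eggs on artificial diet in 96-well plates, surface-treated with 12 μg compound in DMSO-acetone-water; dark, 29° C, mortality at 6 d, six replicates. 128-well trays: second-instar larvae on diet treated at 50 μg/cm^2, 25° C, 14:10 light-dark, six days, mortality averaged over eight wells.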

For assay [2] the test system is unchanged. In words: 128-well diet tray assay on beet armyworm (BAW 50). In kind it is in vivo. As to conditions: for BAW 50 ug/cm2: 128-well diet tray assay, 50 μg/cm^2 of test compound on diet, second instar BAW larvae, mortality class; for pest or weed control at 50 µg/cm2, 50 µg/cm2: Spodoptera exigua, 144 h, read-out: BAW 50 ug/cm2. The method in brief: as §1
Setting [3] is: 96-well microtiter plate HTS diet assay.

For `CCO[C@@H]1[C@@H](OC)[C@H](C)O[C@@H](OC(=O)Nc2ccc(-c3nncc(-c4ccc(OC(F)(F)F)cc4)n3)cc2)[C@@H]1OC` [Compound 237], the “BAW HTS” value in assay [1] (96-well HTS diet assay) is “B (either (1) the compound was tested and less than 50 percent mortality was observed or (2) the compound was not tested)”; in assay [1] (setting [3]), “B (either (1) the compound was tested and less than 50 percent mortality was observed or (2) the compound was not tested)”. Further, the “BAW 50 ug/cm2” value in assay [2] was “A (the compound was tested and at least 50 percent mortality was observed)”.
As to `CCO[C@@H]1[C@@H](OC)[C@H](C)O[C@@H](OC(=O)Nc2ccc(-c3cnnc(-c4ccc(OC(F)(F)F)cc4)n3)cc2)[C@@H]1OC` [Compound 238], the “BAW HTS” value in assay [1] (96-well HTS diet assay) is “B (either (1) the compound was tested and less than 50 percent mortality was observed or (2) the compound was not tested)”; in assay [1] (setting [3]) it was “B (either (1) the compound was tested and less than 50 percent mortality was observed or (2) the compound was not tested)”. In addition, the “BAW 50 ug/cm2” value in assay [2] is “A (the compound was tested and at least 50 percent mortality was observed)”.
For `CCO[C@@H]1[C@@H](OC)[C@H](C)O[C@@H](OC(=O)Nc2ccc(-c3ccc(-c4ccc(OC(F)(F)F)cc4)cn3)cc2)[C@@H]1OC` [Compound 239], the “BAW HTS” value was “B (either (1) the compound was tested and less than 50 percent mortality was observed or (2) the compound was not tested)” in assay [1] (96-well HTS diet assay); “B (either (1) the compound was tested and less than 50 percent mortality was observed or (2) the compound was not tested)” in assay [1] (setting [3]). Moreover, the “BAW 50 ug/cm2” value in assay [2] is “B (either (1) the compound was tested and less than 50 percent mortality was observed or (2) the compound was not tested)”.
As to `CCO[C@@H]1[C@@H](OC)[C@H](C)O[C@@H](OC(=O)Nc2ccc(-c3noc(-c4ccc(OC(F)(F)F)cc4)n3)cc2)[C@@H]1OC` [Compound 240], the “BAW HTS” value in assay [1] (96-well HTS diet assay) was “A (the compound was tested and at least 50 percent mortality was observed)”; in assay [1] (setting [3]), “A (the compound was tested and at least 50 percent mortality was observed)”. Besides, the “BAW 50 ug/cm2” value in assay [2] was “A (the compound was tested and at least 50 percent mortality was observed)”.
Regarding `CCO[C@@H]1[C@@H](OC)[C@H](C)O[C@@H](OC(=O)Nc2ccc(N3CCN(c4ccc(OC(F)(F)F)cc4)CC3)cc2)[C@@H]1OC` [Compound 241], the “BAW HTS” value in assay [1] (96-well HTS diet assay) is “B (either (1) the compound was tested and less than 50 percent mortality was observed or (2) the compound was not tested)”; in assay [1] (setting [3]) it was “B (either (1) the compound was tested and less than 50 percent mortality was observed or (2) the compound was not tested)”. In assay [2], the “BAW 50 ug/cm2” value was “B (either (1) the compound was tested and less than 50 percent mortality was observed or (2) the compound was not tested)”.
For the molecule `CCO[C@@H]1[C@@H](OC)[C@H](C)O[C@@H](OC(=O)Nc2ccc(N3CC(=O)N(c4ccc(OC(F)(F)F)cc4)CC3=O)cc2)[C@@H]1OC` [Compound 242], the “BAW HTS” value was “B (either (1) the compound was tested and less than 50 percent mortality was observed or (2) the compound was not tested)” in assay [1] (96-well HTS diet assay); “B (either (1) the compound was tested and less than 50 percent mortality was observed or (2) the compound was not tested)” in assay [1] (setting [3]). Further, the “BAW 50 ug/cm2” value in assay [2] was “A (the compound was tested and at least 50 percent mortality was observed)”.
For `CCO[C@@H]1[C@@H](OC)[C@H](C)O[C@@H](OC(=O)Nc2ccc(N3CC(=O)N(c4ccc(OC(F)(F)C(F)(F)F)cc4)CC3=O)cc2)[C@@H]1OC` [Compound 243], the “BAW HTS” value in assay [1] (96-well HTS diet assay) was “B (either (1) the compound was tested and less than 50 percent mortality was observed or (2) the compound was not tested)”; in assay [1] (setting [3]), “B (either (1) the compound was tested and less than 50 percent mortality was observed or (2) the compound was not tested)”. Moreover, in assay [2], the “BAW 50 ug/cm2” value was “B (either (1) the compound was tested and less than 50 percent mortality was observed or (2) the compound was not tested)”.
For the molecule `CO[C@H]1[C@H](C)O[C@H](OC(=O)Nc2ccc(-c3ncn(-c4ccc(OC(F)(F)C(F)(F)F)cc4)n3)cc2)C[C@@H]1OC` [Compound 245], the “BAW HTS” value in assay [1] (96-well HTS diet assay) is “B (either (1) the compound was tested and less than 50 percent mortality was observed or (2) the compound was not tested)”; in assay [1] (setting [3]), “B (either (1) the compound was tested and less than 50 percent mortality was observed or (2) the compound was not tested)”. Moreover, the “BAW 50 ug/cm2” value in assay [2] is “A (the compound was tested and at least 50 percent mortality was observed)”.
Take `CCO[C@@H]1[C@@H](OC)[C@H](C)O[C@@H](OC(=O)Nc2ccc(-c3ccc(-c4ccc(OC(F)(F)F)cc4)nn3)cc2)[C@@H]1OC` [Compound 248]: the “BAW HTS” value is “B (either (1) the compound was tested and less than 50 percent mortality was observed or (2) the compound was not tested)” in assay [1] (96-well HTS diet assay); “B (either (1) the compound was tested and less than 50 percent mortality was observed or (2) the compound was not tested)” in assay [1] (setting [3]). Further, the “BAW 50 ug/cm2” value in assay [2] was “B (either (1) the compound was tested and less than 50 percent mortality was observed or (2) the compound was not tested)”.
As to `CCO[C@@H]1[C@@H](OC)[C@H](C)O[C@@H](OC(=O)Nc2ccc(-c3nn(-c4ccc(C(F)(F)F)cc4)c(=O)o3)cc2)[C@@H]1OC` [Compound 249], the “BAW HTS” value in assay [1] (96-well HTS diet assay) is “B (either (1) the compound was tested and less than 50 percent mortality was observed or (2) the compound was not tested)”; in assay [1] (setting [3]) it was “B (either (1) the compound was tested and less than 50 percent mortality was observed or (2) the compound was not tested)”. Moreover, in assay [2], the “BAW 50 ug/cm2” value was “B (either (1) the compound was tested and less than 50 percent mortality was observed or (2) the compound was not tested)”.
For the molecule `CCO[C@@H]1[C@@H](OC)[C@H](C)O[C@@H](OC(=O)N(C)c2ccc(-c3ncn(-c4ccc(OC(F)(F)F)cc4)n3)cc2)[C@@H]1OC` [Compound 250, methyl {4-[1-(4-trifluoromethoxyphenyl)-1H-[1,2,4]triazol-3-yl]-phenyl}-carbamic acid (2S,3R,4R,5S,6S)-4-ethoxy-3,5-dimethoxy-6-methyl-tetrahydropyran-2-yl ester], the “BAW HTS” value in assay [1] (setting [3]) is “B (either (1) the compound was tested and less than 50 percent mortality was observed or (2) the compound was not tested)”. The pest or weed control at 12 µg/well, 12 µg/well in assay [1] was less than 50%. Further, in assay [2], the “BAW 50 ug/cm2” value was “A (the compound was tested and at least 50 percent mortality was observed)”; the pest or weed control at 50 µg/cm2, 50 µg/cm2 is greater than 50%.
As to `CCO[C@@H]1[C@@H](OC)[C@H](C)O[C@@H](OC(=O)N(C)c2ccc(-c3ncn(-c4ccc(OC(F)(F)C(F)(F)F)cc4)n3)cc2)[C@@H]1OC` [Compound 251, methyl {4-[1-(4-pentafluoroethoxy-phenyl)-1H-[1,2,4]triazol-3-yl]-phenyl}-carbamic acid (2S,3R,4R,5S,6S)-4-ethoxy-3,5-dimethoxy-6-methyl-tetrahydropyran-2-yl ester], the “BAW HTS” value in assay [1] (setting [3]) was “B (either (1) the compound was tested and less than 50 percent mortality was observed or (2) the compound was not tested)”. For the same molecule, in assay [1], the pest or weed control at 12 µg/well, 12 µg/well was less than 50%. In addition, in assay [2], the “BAW 50 ug/cm2” value is “A (the compound was tested and at least 50 percent mortality was observed)”; the pest or weed control at 50 µg/cm2, 50 µg/cm2 is greater than 50%.
